From patent US10961309B2, “Reducing systemic regulatory T cell levels or activity for treatment of disease and injury of the CNS” (Yeda Research and Development Co. Ltd, priority 2014, dated 2021)
Entries after “also recorded” stand apart in the source; their conditions may differ.

Experiments:
Assay type in all cases: in vivo, mouse
Aβ plaques = experiment: Aβ plaque quantitation (immunohistochemistry)
Protocol: Tissue processing and immunohistochemistry were performed on paraffin embedded sectioned mouse (6 μm thick) and human (10 μm thick) brains. For human ICAM-1 staining, primary mouse anti-ICAM (1:20 Abcam; ab2213) antibody was used. Slides were incubated for 10 min with 3% H2O2, and a secondary biotin-conjugated anti-mouse antibody was used, followed by biotin/avidin amplification with Vectastain ABC kit (Vector Laboratories). Subsequently, 3,3′-diaminobenzidine (DAB substrate) (Zytomed kit) was applied; slides were dehydrated and mounted with xylene-based mounting solution. For tissue stainings, mice were transcardially perfused with PBS prior to tissue excision and fixation. CP tissues were isolated under a dissecting microscope (Stemi DV4; Zeiss) from the lateral, third, and fourth ventricles of the brain. For whole mount CP staining, tissues were fixated with 2.5% paraformaldehyde (PFA) for 1 hour at 4° C., and subsequently transferred to PBS containing 0.05% sodium azide. Prior to staining, the dissected tissues were washed with PBS and blocked (20% horse serum, 0.3% Triton X-100, and PBS) for 1 h at room temperature. Whole mount staining with primary antibodies (in PBS containing 2% horse serum and 0.3% Triton X-100), or secondary antibodies, was performed for 1 h at room temperature. Each step was followed by three washes in PBS. The tissues were applied to slides, mounted with Immu-mount (9990402, from Thermo Scientific), and sealed with cover-slips. For staining of sectioned brains, two different tissue preparation protocols (paraffin embedded or microtomed free-floating sections) were applied, as previously described (Baruch et al, 2013; Kunis et al, 2013). The following primary antibodies were used: mouse anti-Aβ (1:300, Covance, #SIG-39320); rabbit anti-GFP (1:100, MBL, #598); rat anti-CD68 (1:300, eBioscience, #14-0681); rat anti-ICAM-1 (1:200, Abcam, #AB2213); goat anti-GFP (1:100, Abcam, #ab6658); rabbit anti-IBA-1 (1:300, Wako, #019-19741); goat anti-IL-10 (1:20, R&D systems, #AF519); rat anti-Foxp3 (1:20, eBioscience, #13-5773-80); rabbit anti-CD3 (1:500, Dako, #IS503); mouse anti-ZO-1, mouse anti-E-Cahedrin, and rabbit anti-Claudin-1 (all 1:100, Invitrogen, #33-9100, #33-4000, #51-9000); rabbit anti-GFAP (1:200, Dako, #Z0334). Secondary antibodies included: Cy2/Cy3/Cy5-conjugated donkey anti-mouse/goat/rabbit/rat antibodies (1:200; all from Jackson Immunoresearch). The slides were exposed to Hoechst nuclear staining (1:4000; Invitrogen Probes) for 1 min. Two negative controls were routinely used in immunostaining procedures, staining with isotype control antibody followed by secondary antibody, or staining with secondary antibody alone. For Foxp3 intracellular staining, antigen retrieval from paraffin-embedded slides was performed using Retreivagen Kit (#550524, #550527; BD Pharmingen™). Microscopic analysis, was performed using a fluorescence microscope (E800; Nikon) or laser-scanning confocal microscope (Carl Zeiss, Inc.). The fluorescence microscope was equipped with a digital camera (DXM 1200F; Nikon), and with either a 20× NA 0.50 or 40× NA 0.75 objective lens (Plan Fluor; Nikon). The confocal microscope was equipped with LSM 510 laser scanning capacity (three lasers: Ar 488, HeNe 543, and HeNe 633). Recordings were made on postfixed tissues using acquisition software (NIS-Elements, F3 [Nikon] or LSM [Carl Zeiss, Inc.]). For quantification of staining intensity, total cell and background staining was measured using ImageJ software (NIH), and intensity of specific staining was calculated, as previously described (Burgess et al, 2010). Images were cropped, merged, and optimized using Photoshop CS6 13.0 (Adobe), and were arranged using Illustrator CS5 15.1 (Adobe).
From each brain, 6 μm coronal slices were collected, and eight sections per mouse, from four different pre-determined depths throughout the region of interest (dentate gyrus or cerebral cortex) were immunostained. […]

[1] = system: IFN-γ-expressing immune cells in the CP; experiment: Flow cytometry of CP IFN-γ-expressing immune cells; conditions: p300i 1 week vs vehicle (DMSO), aged mice (18 months), a day after cessation
Protocol: Mice were transcardially perfused with PBS, and tissues were treated as previously described (Baruch et al, 2013). Brains were dissected and the different brain regions were removed under a dissecting microscope (Stemi DV4; Zeiss) in PBS, and tissues were dissociated using the gentleMACS™ dissociator (Miltenyi Biotec). Choroid plexus tissues were isolated from the lateral, third and fourth ventricles of the brain, incubated at 37° C. for 45 min in PBS (with Ca^2+/Mg^2+) containing 400 U/ml collagenase type IV (Worthington Biochemical Corporation), and then manually homogenized by pipetting. Spleens were mashed with the plunger of a syringe and treated with ACK (ammonium chloride potassium) lysing buffer to remove erythrocytes. In all cases, samples were stained according to the manufacturers' protocols. All samples were filtered through a 70 μm nylon mesh, and blocked with anti-Fc CD16/32 (1:100; BD Biosciences). For intracellular staining of IFN-γ, the cells were incubated with […] (10 ng/ml; Sigma-Aldrich) and ionomycin (250 ng/ml; Sigma-Aldrich) for 6 h, and Brefeldin-A (10 μg/ml; Sigma-Aldrich) was added for the last 4 h. Intracellular labeling of cytokines was done with BD Cytofix/Cytoperm™ Plus fixation/permeabilization kit (cat. no. 555028). […] Cells were analyzed on an LSRII cytometer (BD Biosciences) using FlowJo software. […]

[2] = system: soluble Aβ1-40 and Aβ1-42; experiment: Soluble Aβ (sAβ) protein quantification by ELISA
Protocol: Tissue homogenization and sAβ protein extraction was performed as previously described (Schmidt et al, 2005). Briefly, cerebral brain parenchyma was dissected and snap-frozen and kept at −80° C. until homogenization. Proteins were sequentially extracted from samples to obtain separate fractions containing proteins of differing solubility. Samples were homogenized in 10 volumes of ice-cold tissue homogenization buffer, containing 250 mM of sucrose, 20 mM of Tris base, 1 mM of ethylenediaminetetraacetic acid (EDTA), and 1 mM of ethylene glycol tetraacetic acid (pH 7.4), using a ground glass pestle in a Dounce homogenizer. After six strokes, the homogenate was mixed 1:1 with 0.4% diethylamine (DEA) in a 100-mM NaCl solution before an additional six strokes, and then centrifuged at 135,000 g at 4° C. for 45 min. The supernatant (DEA-soluble fraction containing extracellular and cytosolic proteins) was collected and neutralized with 10% of 0.5M of Tris-HCl (pH 6.8). Aβ1-40 and Aβ1-42 were individually measured by enzyme-linked immunosorbent assay (ELISA) from the soluble fraction using commercially available kits (Biolegend; #SIG-38954 and #SIG-38956, respectively) according to the manufacturer instructions.

[3] = system: splenocytes (CD4+Foxp3+ Tregs, CD4+ IFN-γ+ T cells); experiment: Flow cytometry of splenocytes; conditions: p300i 8.9 mg/kg/d i.p. 1 week vs vehicle (DMSO), aged mice (18 months), a day after cessation
Protocol: Mice were transcardially perfused with PBS, and tissues were treated as previously described (Baruch et al, 2013). Brains were dissected and the different brain regions were removed under a dissecting microscope (Stemi DV4; Zeiss) in PBS, and tissues were dissociated using the gentleMACS™ dissociator (Miltenyi Biotec). Choroid plexus tissues were isolated from the lateral, third and fourth ventricles of the brain, incubated at 37° C. for 45 min in PBS (with Ca^2+/Mg^2+) containing 400 U/ml collagenase type IV (Worthington Biochemical Corporation), and then manually homogenized by pipetting. Spleens were mashed with the plunger of a syringe and treated with ACK (ammonium chloride potassium) lysing buffer to remove erythrocytes. In all cases, samples were stained according to the manufacturers' protocols. All samples were filtered through a 70 μm nylon mesh, and blocked with anti-Fc CD16/32 (1:100; BD Biosciences). For intracellular staining of IFN-γ, the cells were incubated with […] (10 ng/ml; Sigma-Aldrich) and ionomycin (250 ng/ml; Sigma-Aldrich) for 6 h, and Brefeldin-A (10 μg/ml; Sigma-Aldrich) was added for the last 4 h. Intracellular labeling of cytokines was done with BD Cytofix/Cytoperm™ Plus fixation/permeabilization kit (cat. no. 555028). For Treg staining, an eBioscience FoxP3 staining buffer set (cat. no. 00-5523-00) was used. The following fluorochrome-labeled monoclonal antibodies were purchased from BD Pharmingen, BioLegend, R&D Systems, or eBiosciences, and used according to the manufacturers' protocols: PE or Alexa Fluor 450-conjugated anti-CD4; PE-conjugated anti-CD25; PerCP-Cy5.5-conjugated anti-CD45; FITC-conjugated anti-TCRβ; APC-conjugated anti-IFN-γ; APC-conjugated anti-FoxP3; Brilliant-violet-conjugated anti-CD45. Cells were analyzed on an LSRII cytometer (BD Biosciences) using FlowJo software. In each experiment, relevant negative control groups, positive controls, and single stained samples for each tissue were used to identify the populations of interest and to exclude other populations.

[4] = two courses of p300i, interval of 1 month

## CC1=NN(c2ccc(C(=O)O)cc2)C(=O)/C1=C\c1ccc(-c2cc(C)c(C)cc2[N+](=O)[O-])o1 [p300i, 4-(4-((5-(4,5-dimethyl-2-nitrophenyl)furan-2-yl)methylene)-3-methyl-5-oxo-4,5-dihydro-1H-pyrazol-1-yl)benzoic acid]
Aβ plaques; p300i 1 week, examined 3 weeks later, 10-month old AD-Tg mice
  cerebral Aβ plaque load: significant reduction in cerebral Aβ plaque load
Aβ plaques; single course of p300i, examined 2 months later, AD-Tg mice age 7 months
  cerebral plaque load (cortex 5th layer): reduction of cerebral plaque load was evident
Aβ plaques; two courses of p300i with a 1-month interval
  reduction of cerebral plaque load, two courses vs single course: stronger
[1]
  IFN-γ-expressing immune cells in the CP: elevated levels; also recorded: elevation
[2]; one course of p300i
  cerebral sAβ levels: effective in reducing cerebral sAβ
[2]; [4]
  cerebral sAβ levels: effective in reducing cerebral sAβ
  effect on sAβ1-42, repeated courses vs one course: stronger
[3]
  IFN-γ-expressing cells (CD4+ T cells) in the spleen: elevated levels; also recorded: elevation
